The values that follow come from patent US11160814B1, “Methods of treatment for disease from coronavirus exposure” (Ensemble Group Holdings, priority 2020, dated 2021).

The assay deals with SARS-CoV-2. Description: Pirfenidone and nintedanib therapy during post-acute phase in patients with severe SARS2 lung damage (Example 3). Format: in vivo, human. Particulars: one patient. The text has this:
Pirfenidone and Nintedanib therapy during the post-acute phase mitigates functional and structural lung loss, preserves lung function and structure, and can improve lung capacity and exertional tolerance in patients previously infected SARS2 with significant pulmonary functional and structural loss as a result of their severe infections. This transition period can be determined in any number of ways including but not limited to laboratory, blood serum, urine, fecal, sputum, bronchial lavage, imaging, genomic or tissue-based testing. These patients can also be characterized in one embodiment as those patients with prolonged hospitalization due to lung disease, prolonged ventilation, course of ECMO, high peaks during hospitalization 1.5 times above the upper of normal for LDH, or Ferritin, or CRP, >30% loss in pulmonary capacity or pulmonary reserve, significant scarring and/or fibrosis seen by CT imaging, MRI, PET imaging or chest x-ray, significant reductions in physiological and functional measures as assessed by the objective physiologic and functional assessments described above, and/or a progressive or worsening pattern of any of such measures over time. During this period, pharmacologic agents and combinations as disclosed herein can be administered to limit, contain, or restrain or reduce such damage and limit the progression of severe SARS2 associated lung damage as described above both physiologically functionally and structurally. A patient with severe clinical COVID symptoms and severe lung damage, and >40% loss of pulmonary reserve by objective testing was treated with pirfenidone starting 1 month after discharge. […] A similar patient was treated with a 50% loss of pulmonary reserve.

Setting [1] is: severe COVID, >40% loss of pulmonary reserve, treatment from 1 month after discharge, at 3 months.

Take `Cc1ccc(=O)n(-c2ccccc2)c1` [pirfenidone]: under setting [1], the PFTs entry is on record as “improvement” and the “progression of structural lung damage by high-resolution CT (HRCT) imaging” value is given as “reduction in progression”.
Turning to `COC(=O)c1ccc2c(c1)NC(=O)/C2=C(\Nc1ccc(N(C)C(=O)CN2CCN(C)CC2)cc1)c1ccccc1` [nintedanib], the “structural and physiologic declines” value (50% loss of pulmonary reserve, initiated two months post-discharge, at 4 months) is “stabilized and arrested”.
